Paper PMC13224100, “Esterase-Responsive Mitochondria-Targeted Hydropersulfide Donors Mitigate Doxorubicin Cardiotoxicity While Preserving Anticancer Activity” (Angewandte Chemie (International ed. in English), 2025)
Marks after values point to notes of the source that are not given here.

How the values were obtained:
[1] = test system: porcine liver esterase (PLE); assay: Quantification of RSSH release (RSS-HPE-AM yield) by HPLC; format: biochemical; conditions: pH 7.4 ammonium bicarbonate with DTPA, 37 °C; for RSSH yield (%) (formation of TPP-RSS-HPE-AM): trapping with 50 equiv of HPE-IAM; for RSSH yield (%) (formation of RSS-HPE-AM): HPE-IAM trapping
Experimental: C. Quantification of RSSH Release by HPLC Analysis […]
(PLE, 1 U/mL) in ammonium bicarbonate buffer (100 mM, pH 7.4) containing diethylenetriaminepentaacetic acid (DTPA, 100 µM) at 37 °C. At designated time points, 200 μL aliquots were withdrawn and immediately quenched by mixing with 200 μL o f i c e-cold 0.1% formic acid. Samples were analyzed by HPLC using the same method and conditions as described above. Quantification of the trapped product (RSS-HPE-AM) was carried out using a calibration curve generated in-house with authentic standards. All experiments were performed in triplicate (n = 3), and data are reported as mean ± standard deviation (SD). […]
0.1% formic acid. Samples were analyzed by Agilent HPLC with UV detection using a C18 reverse-phase column (Phenomenex Luna C18, 4.6 × 150 mm, 5 μm) at 25 °C with a flow rate of 1.0 mL/min and an injection volume of 20 μL. The gradient elution (all solvents v/v, containing 0.1% trifluoroacetic acid) was as follows: 0–10 min, linear gradient from 90% water / 10% acetonitrile to 50% water / 50% acetonitrile; 10–18 min, to 10% water / 90% acetonitrile; 18–20 min, held at 10% water / 90% acetonitrile; 20–25 min, return to 90% water / 10% acetonitrile.
Absorbance was monitored at 275 nm. […]

HepG2 cells = assay: Intracellular ATP levels (CellTiter-Glo) under DOX; format: cell-based; conditions: donor 25 μM, 4 h pretreatment, DOX 5 μM 24 h
Experimental: (§1) Figure 6. a) Basal sulfane sulfur (SS) levels in H9c2 cardiomyocyte, MDA-MB-468, MCF-7, and HepG2 cell lines as detected by SSP4 fluorescence. b) Representative images and c) basal levels of mitochondrial membrane potential (MMP) in H9c2 and cancer cells (MDA-MB-468, MCF-7, and HepG2). d) Impact of APT-1 (25 μM) or APT-1-TPP (25 μM) on MMP in DOX (5 μM)-treated (d) H9c2 and e) HepG2 cells. Impact of APT-1 (25 μM) and APT-1-TPP (25 μM) on ATP levels in DOX (5 μM)-treated f) H9c2 and g) HepG2 cells. Results are expressed as mean ± SEM, n = 3–6; *P < 0.05, **P < 0.01, ***P < 0.001, ****P < 0.0001. Significances in (a) and (c) are presented with respect to H9c2 cells.
(§2) We then examined how RSSH donors influence MMP during DOX exposure. As expected, DOX alone induced mitochondrial depolarization in H9c2 cells, reducing MMP to ca. 50% of control (Figure 6d). […] To complement these observations, we quantified intracellular ATP levels as a functional readout of mitochondrial activity. […]
(§3) Briefly, H9c2 cells and HepG2 cells were seeded in 96-well white-bottom plate (Alkali Scientific, SKU:TPW9096, TC-treated) at 5000 cells/well. After treatment (Ctrl, 5 μM DOX alone, 4 h pretreatment of 25 μM APT-1 + 24 h cotreatment with 5 μM DOX, and 4 h pretreatment of 25 μM APT-1-TPP + 24 h cotreatment with 5 μM DOX, in clear DMEM medium with 10% FBS), cells were equilibrated at rt for 30 min before CellTiter-Glo® reagent was added to each well. Plates were then placed on an orbital shaker for 2 min and incubated at rt for another 20 min.
(§4) Chemiluminescence was measured using Tecan plate reader (SPARK Part No. 30124664 Version 1.7, serial No. 1909010319). Cellular AT P concentration was calculated based on the AT P calibration curve and normalized to cell count. […] Each treatment condition was performed in 6 technical replicates per biological replicate, and the experiment was independently repeated three times (n = 3 biological replicates).
(§5) Data are presented as mean ± SEM. […]

H9c2 cells = assay: Intracellular ATP levels (CellTiter-Glo) under DOX; format: cell-based; conditions: donor 25 μM, 4 h pretreatment, DOX 5 μM 24 h
Experimental: as §1, §2, §3, §4, §5

RSSH yield (%) (formation of TPP-RSS-HPE-AM) [1]	RSSH yield (%) (formation of RSS-HPE-AM) [1]	SMILES	RSSH yield (%) (formation of TPP-RSS-HPE-AM) ([1]; listed as AsT-2-TPP)	effect on DOX-induced ATP depletion (HepG2 cells)	effect on DOX-reduced ATP levels (H9c2 cells)
91	–	COC(=O)SSC(C)(C)C(NC(C)=O)C(=O)N(C)CCC[P+](c1ccccc1)(c1ccccc1)c1ccccc1 (stereo not drawn) [AST-2-TPP]	91^b) %	–	–
–	92	COC(=O)C(NC(C)=O)C(C)(C)SSC(=O)N(C)CCOC(C)=O (stereo not drawn) [APT-1]	–	neither donor rescued DOX-induced ATP depletion	restored
–	95	COC(=O)SSC(C)(C)C(NC(C)=O)C(=O)OC (stereo not drawn) [AST-2]	–	–	–
–	95	CC(=O)NC(C(=O)N(C)CCC[P+](c1ccccc1)(c1ccccc1)c1ccccc1)C(C)(C)SSC(=O)N(C)CCOC(C)=O (stereo not drawn) [APT-1-TPP]	–	neither donor rescued DOX-induced ATP depletion	restored
